Measurements from patent publication US20250108038A1 (priority 2023, published 2025).
“And” between values parts separate entries of the source, which are not always exact repeats. Equal values may be shown once.

Tested on: Long Evans rats
Assay: Behavioral satiety sequence (BSS)
Format: in vivo, Long Evans rat
Text: The Behavioural Satiety Sequence (BSS) is a technique used to evaluate physiological satiety. It is based on the expression of a sequence of behaviors including eating, grooming, locomotor activity, followed by resting, which are typically observed in rodents post-ingestion (Halford et al, 1998, Pharmacology Biochemistry and Behaviour. 61(2): 159-168). The BSS is a widely used model for determining the effects of novel pharmaceuticals on food intake and measures of satiety in rodents (Oliveira et al, 2011, Revista de Nutrição. 24(4) 619-628), and to discriminate the cause of reduced food intake following pharmacological manipulation. For example, treatments that may reduce food intake by non-specific mechanisms, such as immobility, malaise, and taste adulteration, will disrupt this sequence (Halford et al, 1998, Pharmacology Biochemistry and Behaviour. 61(2): 159-168).
Specifically, 12 male Long-Evans rats were food-deprived for 22 h with a 2 h feeding period each day. Rats were trained to consume daily food during the 2 h period over 25 days. The testing phase was initiated once the rats consistently consumed 16-18 g of food per day with ≤10% variance in amount of feed consumed. Feeding took place in designated individual boxes in a quiet room separate from the housing room. Continuous remote monitoring via video camera during feeding was used to assess the BSS. Food consumption was measured by weighing the total available food before and after the 2 h feeding window, correcting for spillage. Lorcaserin (1 mg/kg) was included as a reference control (Higgins et al, 2011, Neuropsychopharmacology. 37(5): 1177-1191). Subjects were tested using a repeated-measures, Latin square design with 2-3 days wash-out between treatment cycles.
On scheduled test days, animals were monitored remotely via video camera during the feeding access period. The occurrence of four mutually exclusive behaviors (eating/drinking, grooming, active, rest) were individually scored. Over the 2 h feeding period, behaviors were assessed every 30 seconds. Scores were compiled into 23 5 min timebins (timebin 24 was removed due to early removal of animals) and the frequency of each behavior within each timebin was calculated to determine a temporal frequency of each measure (Rodgers et al, 2010, Pharmacology Biochemistry and Behaviour. 97: 3-14). Percentage time was plotted for each behavioral sequence in each timebin to compare between treatment groups (Higgins et al, 2011, Neuropsychopharmacology. 37(5): 1177-1191).

[1] = 3 mg/kg, raw data per animal (LT-1 to LT-12)
[2] = Compound I-19 0.1 mg/kg, AVG of animals LT-1 to LT-12
[3] = Compound I-19 0.1 mg/kg, AVG of animals LT-1 to LT-12, 0-0.5 hours

Clc1ccc(C2(OCC3OCCO3)c3ccccc3C3=NCCN32)cc1 (stereo not drawn) [Compound I-19]
BSS scoring E (eating/drinking), Time Bin 19 (90-95 TOTAL), AVG (3 mg/kg, AVG of LT-1 to LT-12): 0.59 | BSS scoring E (eating/drinking), Time Bin 20 (95-100 TOTAL), AVG (3 mg/kg, AVG of LT-1 to LT-12): 0.62 | BSS scoring E (eating/drinking), Time Bin 21 (100-105 TOTAL), AVG (3 mg/kg, AVG of LT-1 to LT-12): 0.56 | BSS scoring E (eating/drinking), Time Bin 22 (105-110 TOTAL), AVG (3 mg/kg, AVG of LT-1 to LT-12): 0.52 | BSS scoring E (eating/drinking), Time Bin 23 (110-115 TOTAL), AVG (3 mg/kg, AVG of LT-1 to LT-12): 0.58 | BSS scoring E (eating/drinking), Time Bin 24 (115-120 TOTAL), AVG (3 mg/kg, AVG of LT-1 to LT-12): 0.37 | BSS scoring G (grooming), Time Bin 19 (90-95 TOTAL), AVG (3 mg/kg, AVG of LT-1 to LT-12): 0.05 | BSS scoring G (grooming), Time Bin 20 (95-100 TOTAL), AVG (3 mg/kg, AVG of LT-1 to LT-12): 0.04 | BSS scoring G (grooming), Time Bin 21 (100-105 TOTAL), AVG (3 mg/kg, AVG of LT-1 to LT-12): 0.06 | BSS scoring G (grooming), Time Bin 22 (105-110 TOTAL), AVG (3 mg/kg, AVG of LT-1 to LT-12): 0.07 | BSS scoring G (grooming), Time Bin 23 (110-115 TOTAL), AVG (3 mg/kg, AVG of LT-1 to LT-12): 0.02 | BSS scoring G (grooming), Time Bin 24 (115-120 TOTAL), AVG (3 mg/kg, AVG of LT-1 to LT-12): 0.02 | BSS scoring R (resting), Time Bin 19 (90-95 TOTAL), AVG (3 mg/kg, AVG of LT-1 to LT-12): 0.18 | BSS scoring R (resting), Time Bin 20 (95-100 TOTAL), AVG (3 mg/kg, AVG of LT-1 to LT-12): 0.15 | BSS scoring R (resting), Time Bin 21 (100-105 TOTAL), AVG (3 mg/kg, AVG of LT-1 to LT-12): 0.16 | BSS scoring R (resting), Time Bin 22 (105-110 TOTAL), AVG (3 mg/kg, AVG of LT-1 to LT-12): 0.22 | BSS scoring R (resting), Time Bin 23 (110-115 TOTAL), AVG (3 mg/kg, AVG of LT-1 to LT-12): 0.22 | BSS scoring R (resting), Time Bin 24 (115-120 TOTAL), AVG (3 mg/kg, AVG of LT-1 to LT-12): 0.18 | BSS scoring A (active), Time Bin 19 (90-95 TOTAL) [1]: 0 (3×) and 1 (2×) and 2 (5×) and 4 and 5 | BSS scoring A (active), Time Bin 20 (95-100 TOTAL) [1]: 5 and 0 (5×) and 3 and 4 (3×) and 1 and 2 | BSS scoring A (active), Time Bin 21 (100-105 TOTAL) [1]: 7 and 0 (6×) and 1 and 5 (3×) and 3 | BSS scoring A (active), Time Bin 22 (105-110 TOTAL) [1]: 0 (5×) and 1 and 3 (2×) and 5 and 2 (2×) and 8 | BSS scoring A (active), Time Bin 23 (110-115 TOTAL) [1]: 0 (6×) and 3 (2×) and 5 (2×) and 1 and 6 | BSS scoring A (active), Time Bin 24 (115-120 TOTAL) [1]: 3 and 0 (3×) and 2 (3×) and 7 (2×) and 1 and 4 (2×) | BSS scoring E (eating/drinking), Time Bin 19 (90-95 TOTAL) [1]: 7 (2×) and 8 (2×) and 9 and 6 and 0 and 1 and 5 (3×) and 10 | BSS scoring E (eating/drinking), Time Bin 20 (95-100 TOTAL) [1]: 4 (3×) and 10 and 5 and 8 (2×) and 9 (2×) and 0 and 7 and 6 | BSS scoring E (eating/drinking), Time Bin 21 (100-105 TOTAL) [1]: 3 and 10 (2×) and 9 (3×) and 7 (2×) and 0 (2×) and 1 and 2 | BSS scoring E (eating/drinking), Time Bin 22 (105-110 TOTAL) [1]: 8 and 5 and 7 (3×) and 9 (2×) and 0 (2×) and 3 (2×) and 4 | BSS scoring E (eating/drinking), Time Bin 23 (110-115 TOTAL) [1]: 10 (3×) and 6 and 0 (2×) and 8 (2×) and 4 and 3 and 5 (2×) | BSS scoring E (eating/drinking), Time Bin 24 (115-120 TOTAL) [1]: 6 and 0 (3×) and 8 and 4 (2×) and 7 and 2 (2×) and 1 and 10 | BSS scoring G (grooming), Time Bin 19 (90-95 TOTAL) [1]: 0 (8×) and 2 (2×) and 1 (2×) | BSS scoring G (grooming), Time Bin 20 (95-100 TOTAL) [1]: 0 (8×) and 1 (3×) and 2 | BSS scoring G (grooming), Time Bin 21 (100-105 TOTAL) [1]: 0 (8×) and 1 and 2 (3×) | BSS scoring G (grooming), Time Bin 22 (105-110 TOTAL) [1]: 0 (8×) and 2 (2×) and 1 and 3 | BSS scoring G (grooming), Time Bin 23 (110-115 TOTAL) [1]: 0 (10×) and 1 (2×) | BSS scoring G (grooming), Time Bin 24 (115-120 TOTAL) [1]: 0 (10×) and 1 (2×) | BSS scoring R (resting), Time Bin 19 (90-95 TOTAL) [1]: 3 and 0 (5×) and 2 and 1 (3×) and 8 and 6 | BSS scoring R (resting), Time Bin 20 (95-100 TOTAL) [1]: 1 (4×) and 0 (4×) and 2 (3×) and 8 | BSS scoring R (resting), Time Bin 21 (100-105 TOTAL) [1]: 0 (5×) and 3 (2×) and 6 and 1 (3×) and 4 | BSS scoring R (resting), Time Bin 22 (105-110 TOTAL) [1]: 2 (3×) and 0 (2×) and 1 (5×) and 10 and 5 | BSS scoring R (resting), Time Bin 23 (110-115 TOTAL) [1]: 0 (5×) and 10 and 1 (2×) and 5 (2×) and 2 (2×) | BSS scoring R (resting), Time Bin 24 (115-120 TOTAL) [1]: 1 (3×) and 0 (4×) and 2 (2×) and 4 (2×) and 7 | BSS scoring A (active), Time Bin 19 (90-95 TOTAL), AVG [2]: 0.30 | BSS scoring A (active), Time Bin 20 (95-100 TOTAL), AVG [2]: 0.13 | BSS scoring A (active), Time Bin 21 (100-105 TOTAL), AVG [2]: 0.08 | BSS scoring A (active), Time Bin 22 (105-110 TOTAL), AVG [2]: 0.13 | BSS scoring A (active), Time Bin 23 (110-115 TOTAL), AVG [2]: 0.21 | BSS scoring A (active), Time Bin 24 (115-120 TOTAL), AVG [2]: 0.16 | BSS scoring E (eating/drinking), Time Bin 19 (90-95 TOTAL), AVG [2]: 0.52 | BSS scoring E (eating/drinking), Time Bin 20 (95-100 TOTAL), AVG [2]: 0.68 | BSS scoring E (eating/drinking), Time Bin 21 (100-105 TOTAL), AVG [2]: 0.73 | BSS scoring E (eating/drinking), Time Bin 22 (105-110 TOTAL), AVG [2]: 0.68 | BSS scoring E (eating/drinking), Time Bin 23 (110-115 TOTAL), AVG [2]: 0.64 | BSS scoring E (eating/drinking), Time Bin 24 (115-120 TOTAL), AVG [2]: 0.52 | BSS scoring G (grooming), Time Bin 19 (90-95 TOTAL), AVG [2]: 0.03 | BSS scoring G (grooming), Time Bin 20 (95-100 TOTAL), AVG [2]: 0.05 | BSS scoring G (grooming), Time Bin 21 (100-105 TOTAL), AVG [2]: 0.04 | BSS scoring G (grooming), Time Bin 22 (105-110 TOTAL), AVG [2]: 0.04 | BSS scoring G (grooming), Time Bin 23 (110-115 TOTAL), AVG [2]: 0.03 | BSS scoring G (grooming), Time Bin 24 (115-120 TOTAL), AVG [2]: 0.03 | BSS scoring R (resting), Time Bin 19 (90-95 TOTAL), AVG [2]: 0.15 | BSS scoring R (resting), Time Bin 20 (95-100 TOTAL), AVG [2]: 0.14 | BSS scoring R (resting), Time Bin 21 (100-105 TOTAL), AVG [2]: 0.15 | BSS scoring R (resting), Time Bin 22 (105-110 TOTAL), AVG [2]: 0.15 | BSS scoring R (resting), Time Bin 23 (110-115 TOTAL), AVG [2]: 0.12 | BSS scoring R (resting), Time Bin 24 (115-120 TOTAL), AVG [2]: 0.13 | BSS scoring A (active), Time Bin 1 (0-5 TOTAL), AVG [3]: 0.09 | BSS scoring A (active), Time Bin 2 (5-10 TOTAL), AVG [3]: 0.04 | BSS scoring A (active), Time Bin 3 (10-15 TOTAL), AVG [3]: 0.03 | BSS scoring A (active), Time Bin 4 (15-20 TOTAL), AVG [3]: 0.09 | BSS scoring A (active), Time Bin 5 (20-25 TOTAL), AVG [3]: 0.08 | BSS scoring A (active), Time Bin 6 (25-30 TOTAL), AVG [3]: 0.13 | BSS scoring E (eating/drinking), Time Bin 1 (0-5 TOTAL), AVG [3]: 0.89 | BSS scoring E (eating/drinking), Time Bin 2 (5-10 TOTAL), AVG [3]: 0.96 | BSS scoring E (eating/drinking), Time Bin 3 (10-15 TOTAL), AVG [3]: 0.95
